# In patent publication US20240182487A1, “MACROCYCLES AND THEIR USE” (BLOSSOMHILL THERAPEUTICS, INC., priority 2020, published 2024):
# Assays:
# Assay type in all cases: biochemical
# EGFR (Δ746-750) = EGFR (Δ746-750) (Homo sapiens (Human), UniProt P00533, DEL746-750); test: HotSpot radiometric kinase assay, EGFR Δ746-750; conditions: radiometric filter-binding, 10 μM ATP
# EGFR L858R/C797S mutant = EGFR L858R/C797S mutant (Homo sapiens (Human), UniProt P00533, C797S/L858R); test: HotSpot radiometric kinase assay, EGFR L858R/C797S; conditions: radiometric filter-binding, 10 μM ATP
# [1] = target: EGFR Δ746-750/T790M mutant (Homo sapiens (Human), UniProt P00533, DEL746-750/T790M); test: HotSpot radiometric kinase assay, EGFR Δ746-750/T790M; conditions: radiometric filter-binding, 10 μM ATP
# Protocol: (§1) Biochemical Assays for Inhibition of Wild-Type and Mutant EGFRs
# (§2) The inhibitory activities against EGFR WT, EGFR Δ752-759 mutant, EGFR Δ746-750/T790M mutant, EGFR Δ746-750/C797S mutant, EGFR Δ746-750/T790M/C797S mutant. […] Briefly, specific kinase/substrate pairs along with required cofactors were prepared in reaction buffer; 20 mM Hepes pH 7.5, 10 mM MgCl2, 1 mM EGTA, 0.02% Brij35, 0.02 mg/ml BSA, 0.1 mM Na3VO4, 2 mM DTT, 1% DMSO. Compounds were delivered into the reaction, followed ˜20 minutes later by addition of a mixture of ATP (Sigma, St. Louis MO) and ^33P ATP (Perkin Elmer, Waltham MA) to a final concentration of 10 μM. Reactions were carried out at room temperature for 120 min, followed by spotting of the reactions onto P81 ion exchange filter paper (Whatman Inc., Piscataway, NJ). Unbound phosphate was removed by extensive washing of filters in 0.75% phosphoric acid. […] IC50 values and curve fits were obtained using Prism (GraphPad Software).
# EGFR L858R/T790M mutant = EGFR L858R/T790M mutant (Homo sapiens (Human), UniProt P00533, L858R/T790M); test: HotSpot radiometric kinase assay, EGFR L858R/T790M; conditions: radiometric filter-binding, 10 μM ATP; read-out: EGFR (L858R/T790M)_IC50
# [2] = target: EGFR L858R/T790M/C797S mutant (Homo sapiens (Human), UniProt P00533, C797S/L858R/T790M); test: HotSpot radiometric kinase assay, EGFR L858R/T790M/C797S; conditions: radiometric filter-binding, 10 μM ATP; read-out: EGFR (L858R/T790M/C797S/)_IC50
# EGFR L858R mutant = EGFR L858R mutant (Homo sapiens (Human), UniProt P00533, L858R); test: HotSpot radiometric kinase assay, EGFR L858R; conditions: radiometric filter-binding, 10 μM ATP
# [3] = target: EGFR Δ746-750/C797S mutant (Homo sapiens (Human), UniProt P00533, C797S/DEL746-750); test: HotSpot radiometric kinase assay, EGFR Δ746-750/C797S; conditions: radiometric filter-binding, 10 μM ATP
# Protocol: as §1, §2
# [4] = target: EGFR Δ746-750/T790M/C797S mutant (Homo sapiens (Human), UniProt P00533, C797S/DEL746-750/T790M); test: HotSpot radiometric kinase assay, EGFR Δ746-750/T790M/C797S; conditions: radiometric filter-binding, 10 μM ATP
# Protocol: as §1, §2
# EGFR WT = EGFR WT (Homo sapiens (Human), UniProt P00533); test: HotSpot radiometric kinase assay, EGFR WT; conditions: radiometric filter-binding, 10 μM ATP
# Protocol: as §1, §2
# EGFR L858R/T790M/C797S mutant, sequence (P00533 25-1210 T790M/C797S/L858R): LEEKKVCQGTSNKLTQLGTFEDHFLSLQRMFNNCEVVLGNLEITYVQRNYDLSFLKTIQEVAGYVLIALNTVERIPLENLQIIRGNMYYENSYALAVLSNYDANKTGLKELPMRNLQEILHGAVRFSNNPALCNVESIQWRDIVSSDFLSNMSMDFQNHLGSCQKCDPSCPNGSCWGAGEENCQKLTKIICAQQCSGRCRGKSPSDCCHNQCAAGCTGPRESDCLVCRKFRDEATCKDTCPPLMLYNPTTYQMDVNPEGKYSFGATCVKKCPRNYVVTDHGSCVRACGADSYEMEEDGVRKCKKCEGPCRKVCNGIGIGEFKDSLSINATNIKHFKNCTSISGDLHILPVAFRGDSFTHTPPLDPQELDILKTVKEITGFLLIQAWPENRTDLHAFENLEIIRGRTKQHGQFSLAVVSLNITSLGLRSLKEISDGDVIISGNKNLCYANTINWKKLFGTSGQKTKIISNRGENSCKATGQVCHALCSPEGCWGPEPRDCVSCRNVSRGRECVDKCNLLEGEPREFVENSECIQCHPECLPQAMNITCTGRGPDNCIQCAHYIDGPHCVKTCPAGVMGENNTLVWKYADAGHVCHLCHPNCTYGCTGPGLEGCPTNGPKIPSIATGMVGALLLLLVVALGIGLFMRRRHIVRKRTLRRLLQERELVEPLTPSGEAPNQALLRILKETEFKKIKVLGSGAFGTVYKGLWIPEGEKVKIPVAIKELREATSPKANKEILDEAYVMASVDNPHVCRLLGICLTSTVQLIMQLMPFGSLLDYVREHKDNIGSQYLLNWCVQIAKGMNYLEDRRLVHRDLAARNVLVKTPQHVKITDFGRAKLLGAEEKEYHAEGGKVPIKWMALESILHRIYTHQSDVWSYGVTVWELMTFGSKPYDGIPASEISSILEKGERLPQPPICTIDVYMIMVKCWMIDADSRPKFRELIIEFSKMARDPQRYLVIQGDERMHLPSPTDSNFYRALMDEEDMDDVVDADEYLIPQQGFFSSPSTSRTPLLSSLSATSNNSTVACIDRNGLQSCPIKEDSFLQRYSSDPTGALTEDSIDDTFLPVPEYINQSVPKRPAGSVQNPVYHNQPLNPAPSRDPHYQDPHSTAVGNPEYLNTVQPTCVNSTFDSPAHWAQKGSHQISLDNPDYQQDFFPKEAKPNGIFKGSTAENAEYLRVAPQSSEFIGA
# EGFR L858R/T790M mutant, sequence (P00533 25-1210 T790M/L858R): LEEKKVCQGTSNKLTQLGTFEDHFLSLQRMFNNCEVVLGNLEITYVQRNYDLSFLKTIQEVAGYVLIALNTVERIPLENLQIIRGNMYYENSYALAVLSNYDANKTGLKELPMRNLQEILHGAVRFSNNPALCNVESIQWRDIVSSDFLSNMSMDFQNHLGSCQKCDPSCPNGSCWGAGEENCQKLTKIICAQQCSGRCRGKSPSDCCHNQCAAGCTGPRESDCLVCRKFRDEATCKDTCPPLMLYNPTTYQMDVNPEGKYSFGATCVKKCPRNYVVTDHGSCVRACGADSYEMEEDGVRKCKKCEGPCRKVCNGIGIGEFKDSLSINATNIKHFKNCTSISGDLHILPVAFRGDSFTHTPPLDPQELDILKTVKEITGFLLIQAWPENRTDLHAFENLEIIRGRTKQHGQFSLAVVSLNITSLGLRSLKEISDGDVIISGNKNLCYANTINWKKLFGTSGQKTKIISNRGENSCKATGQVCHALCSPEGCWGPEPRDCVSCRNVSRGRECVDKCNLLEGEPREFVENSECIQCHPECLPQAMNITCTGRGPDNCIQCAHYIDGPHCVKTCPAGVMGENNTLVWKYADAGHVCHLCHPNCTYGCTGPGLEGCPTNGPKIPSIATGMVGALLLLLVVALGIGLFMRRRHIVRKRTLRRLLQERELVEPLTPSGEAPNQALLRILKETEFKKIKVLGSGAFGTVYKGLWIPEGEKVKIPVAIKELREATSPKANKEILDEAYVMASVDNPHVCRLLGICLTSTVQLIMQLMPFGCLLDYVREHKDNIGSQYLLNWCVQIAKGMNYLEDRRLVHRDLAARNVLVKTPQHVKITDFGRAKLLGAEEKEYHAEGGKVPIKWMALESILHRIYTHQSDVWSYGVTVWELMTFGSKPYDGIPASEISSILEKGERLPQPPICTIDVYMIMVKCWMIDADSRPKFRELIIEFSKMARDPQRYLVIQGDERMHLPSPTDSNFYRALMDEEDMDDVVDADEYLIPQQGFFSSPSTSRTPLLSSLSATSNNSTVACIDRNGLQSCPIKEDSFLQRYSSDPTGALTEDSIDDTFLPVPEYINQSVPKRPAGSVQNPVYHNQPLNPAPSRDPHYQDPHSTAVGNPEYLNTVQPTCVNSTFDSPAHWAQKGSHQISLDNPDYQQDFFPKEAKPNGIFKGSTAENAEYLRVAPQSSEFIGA
# EGFR L858R mutant, sequence (P00533 25-1210 L858R): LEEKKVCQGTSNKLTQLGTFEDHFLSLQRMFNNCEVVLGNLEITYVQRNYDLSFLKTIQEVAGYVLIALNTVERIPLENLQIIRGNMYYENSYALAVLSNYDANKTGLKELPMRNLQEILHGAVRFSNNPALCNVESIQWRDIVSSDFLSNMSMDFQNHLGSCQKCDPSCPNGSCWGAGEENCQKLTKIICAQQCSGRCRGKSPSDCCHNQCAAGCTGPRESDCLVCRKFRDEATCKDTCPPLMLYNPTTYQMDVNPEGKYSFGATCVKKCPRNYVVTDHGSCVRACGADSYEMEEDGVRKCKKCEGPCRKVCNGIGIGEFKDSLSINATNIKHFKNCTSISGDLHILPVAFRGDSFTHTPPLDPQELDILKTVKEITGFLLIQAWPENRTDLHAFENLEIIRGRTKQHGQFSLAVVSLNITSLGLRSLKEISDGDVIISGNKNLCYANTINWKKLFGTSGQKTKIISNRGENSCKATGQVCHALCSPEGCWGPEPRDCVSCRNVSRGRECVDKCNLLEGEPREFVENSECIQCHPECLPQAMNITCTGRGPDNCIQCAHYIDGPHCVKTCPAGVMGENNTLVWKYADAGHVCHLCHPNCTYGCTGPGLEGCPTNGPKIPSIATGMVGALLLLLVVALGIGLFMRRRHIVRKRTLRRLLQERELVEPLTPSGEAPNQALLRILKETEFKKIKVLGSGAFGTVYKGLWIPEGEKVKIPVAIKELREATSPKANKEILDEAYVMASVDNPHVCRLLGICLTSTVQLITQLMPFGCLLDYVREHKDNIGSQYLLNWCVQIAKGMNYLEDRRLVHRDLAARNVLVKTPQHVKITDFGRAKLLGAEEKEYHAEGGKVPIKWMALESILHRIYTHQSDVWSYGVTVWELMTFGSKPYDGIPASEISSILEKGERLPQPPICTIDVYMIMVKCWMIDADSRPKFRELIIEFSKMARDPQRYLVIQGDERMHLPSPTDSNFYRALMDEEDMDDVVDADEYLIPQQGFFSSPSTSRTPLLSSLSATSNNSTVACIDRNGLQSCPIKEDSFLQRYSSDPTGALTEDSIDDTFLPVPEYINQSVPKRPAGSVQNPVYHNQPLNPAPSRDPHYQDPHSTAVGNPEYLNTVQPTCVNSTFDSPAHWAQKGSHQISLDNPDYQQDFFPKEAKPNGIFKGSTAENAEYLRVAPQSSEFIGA
# EGFR Δ746-750/C797S mutant, sequence (P00533 other isoform, or with tags, fused parts or gaps C797S/del 1-668/del 746-750 limits assumed): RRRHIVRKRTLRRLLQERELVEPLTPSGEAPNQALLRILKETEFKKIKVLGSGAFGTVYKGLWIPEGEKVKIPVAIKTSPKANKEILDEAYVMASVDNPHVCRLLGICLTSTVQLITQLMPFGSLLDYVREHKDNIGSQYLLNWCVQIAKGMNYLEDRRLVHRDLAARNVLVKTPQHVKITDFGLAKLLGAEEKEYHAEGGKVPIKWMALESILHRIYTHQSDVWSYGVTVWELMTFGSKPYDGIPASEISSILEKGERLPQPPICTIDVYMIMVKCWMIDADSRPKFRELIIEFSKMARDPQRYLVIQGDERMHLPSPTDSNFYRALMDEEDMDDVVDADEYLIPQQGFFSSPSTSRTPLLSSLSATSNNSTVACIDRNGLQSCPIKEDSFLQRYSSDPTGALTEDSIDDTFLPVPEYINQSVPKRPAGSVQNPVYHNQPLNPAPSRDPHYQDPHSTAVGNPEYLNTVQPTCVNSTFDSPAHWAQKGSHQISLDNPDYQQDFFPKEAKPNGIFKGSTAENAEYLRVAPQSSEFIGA
# EGFR Δ746-750/T790M/C797S mutant, sequence (P00533 other isoform, or with tags, fused parts or gaps T790M/C797S/del 1-668/del 746-750 limits assumed): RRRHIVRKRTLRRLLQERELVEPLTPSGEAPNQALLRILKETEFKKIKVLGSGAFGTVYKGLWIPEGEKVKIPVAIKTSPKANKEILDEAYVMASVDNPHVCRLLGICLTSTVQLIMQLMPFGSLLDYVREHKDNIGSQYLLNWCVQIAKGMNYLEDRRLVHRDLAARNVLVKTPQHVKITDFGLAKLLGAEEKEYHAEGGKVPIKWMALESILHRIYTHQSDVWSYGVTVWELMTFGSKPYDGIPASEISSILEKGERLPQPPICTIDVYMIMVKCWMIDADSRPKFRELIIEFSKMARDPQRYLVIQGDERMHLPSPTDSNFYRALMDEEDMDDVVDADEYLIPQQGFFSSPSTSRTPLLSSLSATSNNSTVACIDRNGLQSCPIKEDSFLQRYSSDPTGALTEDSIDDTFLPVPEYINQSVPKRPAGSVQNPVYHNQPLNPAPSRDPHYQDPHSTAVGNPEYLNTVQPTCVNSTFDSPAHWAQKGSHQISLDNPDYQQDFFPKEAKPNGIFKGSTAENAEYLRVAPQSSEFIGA
smiles,measurement,setting,value
"Cn1ncc2c1OCCCOc1ccccc1/C=C/c1n[nH]c3ccc-2cc13 [Cpd. 3, (11E)-1-methyl-19,20-dihydro-1H,8H,18H-10,7,4-(ethan[1]yl[1,2]diylidene)pyrazolo[3,4-f][1,5,12,13]benzodioxadiazacyclooctadecine]",IC50,EGFR (Δ746-750),0.079 µM
same,IC50,EGFR L858R/C797S mutant,1.07 µM
same,IC50,[1],0.0132 µM
same,IC50,EGFR L858R/T790M mutant,0.138 µM
same,IC50,[2],0.279 µM
same,IC50,EGFR L858R mutant,0.374 µM
same,IC50,[3],0.0244 µM
same,IC50,[4],0.0102 µM
same,IC50,EGFR WT,1.05 µM
